The record followed here is patent US20050256132A1, “Use of ER selective NF-kB inhibitors for the treatment of sepsis” (priority 2003, published 2005).

One data set deals with ER/IL-6. Briefly: Endothelial Cell ER/IL-6 Assay, IL-6 promoter luciferase (Table 2). It is filed as cell-based, human. To be noted: Homo sapiens, HAECT1, ERα infected HAECT-1 cells, IL-1β; for Emax: read-out: IL6 luc % Efficacy; for IC50: read-out: IL6 luc IC50. How it is done: T-175 flasks of 100% confluent HAECT-1 cells (immortalized human aortic endothelial cells) were washed with 8 ml of HBSS (HEPES buffered saline solution) and infected for fours hours with 6 ml of a 1:10 dilution of Ad5-wt-hERα virus (an adenovirus transfection vector that mediates CMV promoter driven expression of human ERα) in phenol red free Endothelial Cell Basal medium (Clonetics, San Diego, Calif., Catalog # CC-3129) containing 0.25% bovine serum albumin (EDM-BSA). After four hours, cells were washed with EDM-BSA and incubated overnight in the same medium. Following overnight incubation, cells were washed with EDM-BSA and infected for 2 hours with 6 ml of a 1:10 dilution of Ad5-3x(NFκB).Luc virus (Adenovirus luciferase expression vector driven by three repeats of the MHC NFκb sites 5′ to the thymidine kinase promoter) in EDM-BSA. After two hours, cells were washed and incubated at 34° C. for one hour. Cells were then washed, trypsinized, counted, and resuspended in 95% FBS/5% dimethylsulfoxide at a concentration of […], frozen as 1 or 5 ml aliquots in cryo-vials and stored at −150° C. Control (no ER infection) cells were processed as above without Ad5-wt-hERα virus infection.
ERα infected HAECT-1 cells or control cells were thawed, diluted 42× in warm EBM-BSA, plated into 96-well plates at 0.1 ml/well and incubated for 4 hours at 34° C. Test compounds were added to the cells at 2× stocks in EBM-BSA containing 2 ng/ml IL-1β Ad6-IL-6(1250 bp).Luc virus and plates were returned to the incubator (34° C.). After […], cells were lysed with 50 μl of Promega Cell Culture Lysis reagenet for about 5 minutes at room temperature on a shaker. After lysing, 15 μl of lysate is transferred to luminometer plates for luciferase determination. Luciferase activity is evaluated using a Perkin Elmer Victor2 1420 multilabel counter. Creatine kinase was determined from the rate of increase in A340 following addition of 100 μl of CK assay reagent (Sigma catalog no. 47-10) to the remainder of the cell lysate.
For IC50 and EC50 calculations, mean IL-6, luciferase or CK values versus log10 of the compound concentration were fitted to a four parameter logistic equation. The IC50/EC50 value, ‘Hill slope,’ upper and lower limits of the curve were iteratively estimated.

Counter-ions that a name gives are not always drawn.

A word on the melting point: it is the temperature of the solid-liquid transition. Consider `C[C@@](C#N)(C(=O)O)[C@H](c1ccccc1C(F)(F)F)c1cccc2ccccc12` (racemic), for which the melting point was 220 °C (dec.).
Regarding `CCN(CC)CC[C@](C#N)(C(=O)OC)[C@H](c1ccccc1OC)c1cccc2ccccc12` (relative stereo) (as salt: HCl) [Example 148, Methyl (2S*)-2-cyano-4-(diethylamino)-2-[(S*)-(2-methoxyphenyl)(1-naphthyl)methyl]butanoate], the melting point was 174 °C (dec.).
The IC50 is the concentration that inhibits the measured activity by half. For the compound `COC(=O)[C@@](C#N)(Cc1ccncc1)[C@H](c1ccccc1OC)c1cccc2ccccc12` (relative stereo) [Example 142, Methyl (2S*,3S*)-2-cyano-3-(2-methoxyphenyl)-3-(1-naphthyl)-2-(pyridin-4-ylmethyl)propanoate], the melting point is 228 to 230 °C (dec.). In the data set with ER/IL-6, the Emax stood at 103% and the IC50 is 0.069 µM.
For `COC(=O)[C@@](C#N)(Cc1cccnc1)[C@H](c1ccccc1OC)c1cccc2ccccc12` (relative stereo) [Example 145, Methyl (2S*,3S*)-2-cyano-3-(2-methoxyphenyl)-3-(1-naphthyl)-2-(pyridin-3-ylmethyl)propanoate], the melting point was in the range of 160 to 164.4 °C. Further, in the data set with ER/IL-6, the Emax turned out to be 102%.
`COC(=O)[C@@](C#N)(COCc1ccccc1)[C@H](c1ccccc1OC)c1cccc2ccccc12` (relative stereo) [Example 146, Methyl (2S*,3S*)-2-[(benzyloxy)methyl]-2-cyano-3-(2-methoxyphenyl)-3-(1-naphthyl)propanoate] yielded a melting point of 132.9 to 134.4 °C. In addition, in the data set with ER/IL-6, the Emax stood at 135% and the IC50 is 0.0055 µM.
Take `COC[C@](C#N)(C(=O)OC(C)(C)C)[C@H](c1ccccc1OC)c1cccc2ccccc12` (relative stereo) [Example 149, tert-Butyl (2S*,3S*)-2-cyano-2-(methoxymethyl)-3-(2-methoxyphenyl)-3-(1-naphthyl)propanoate]: the melting point fell in the range of 163 to 165.3 °C. Moreover, in the data set with ER/IL-6, the Emax came to 102% and the IC50 is 0.018 µM.
In turn, `COc1ccccc1[C@H](c1cccc2ccccc12)[C@](C#N)(COCc1ccccc1)C(=O)OC(C)(C)C` (relative stereo) [Example 154, tert-Butyl (2S*,3S*)-2-[(benzyloxy)methyl]-2-cyano-3-(2-methoxyphenyl)-3-(1-naphthyl)propanoate] returned a melting point of 166 to 170 °C. For the same compound, in the data set with ER/IL-6, the Emax was 87% and the IC50 is 0.006 µM.
The compound `COc1ccccc1[C@@H](c1cccc2ccccc12)[C@](C#N)(COCc1ccccc1)C(=O)N1CCN(CCCN(C)C)CC1` (relative stereo) [Example 205, (2S*)-2-[(benzyloxy)methyl]-3-{4-[3-(dimethylamino)propyl]piperazin-1-yl}-2-[(R*)-(2-methoxyphenyl)(1-naphthyl)methyl]-3-oxopropanenitrile] displayed a melting point of 192 to 193 °C. Moreover, in the data set with ER/IL-6, the Emax was found to be 58% and the IC50 amounted to 0.334 µM.
Compound `COc1ccccc1[C@H](c1cccc2ccccc12)[C@@](C)(C#N)C(=O)N1CCN(c2ccncc2)CC1` [Example 133, (2S,3S)-3-(2-methoxyphenyl)-2-methyl-3-(1-naphthyl)-2-[(4-pyridin-4-ylpiperazin-1-yl)carbonyl]propanenitrile] came in with a melting point of 142 to 144 °C. For the same compound, in the data set on ER/IL-6, the Emax was found to be 81% and the IC50 was determined as 0.206 µM.
Compound `COc1ccccc1[C@H](c1cccc2ccccc12)[C@@](C)(C#N)C(=O)N1CCC(N2C(=O)CCc3ccccc32)CC1` [Example 134, (2S,3S)-3-(2-methoxyphenyl)-2-methyl-3-(1-naphthyl)-2-{[4-(2-oxo-3,4-dihydroquinolin-1(2H)-yl)piperidin-1-yl]carbonyl}propanenitrile] gave a melting point of 265 to 267 °C. Further, in the data set on ER/IL-6, the Emax is 85% and the IC50 was 0.612 µM.
The compound `COc1ccccc1[C@H](c1cccc2ccccc12)[C@@](C)(C#N)C(=O)N1CC=C(c2ccc(Br)cc2)CC1` [Example 135, (2S)-3-[4-(4-bromophenyl)-3,6-dihydropyridin-1(2H)-yl]-2-[(S)-(2-methoxyphenyl)(1-naphthyl)methyl]-2-methyl-3-oxopropanenitrile] displayed a melting point of 136 to 139 °C. In the data set with ER/IL-6, the Emax turned out to be 119% and the IC50 worked out at 0.065 µM.
Compound `COc1ccccc1[C@H](c1cccc2ccccc12)[C@@](C)(C#N)C(=O)N1CCN(c2cccc(C(F)(F)F)c2)CC1` [Example 136, (2S,3S)-3-(2-methoxyphenyl)-2-methyl-3-(1-naphthyl)-2-({4-[3-(trifluoromethyl)phenyl]piperazin-1-yl}carbonyl)propanenitrile] showed a melting point of 158 to 162 °C. Also, in the data set on ER/IL-6, the Emax came out at 142% and the IC50 was 0.063 µM.
For the compound `COc1ccccc1[C@H](c1cccc2ccccc12)[C@@](C)(C#N)C(=O)N1CCC(C2CCCC(C(F)(F)F)C2)CC1` (stereo partly drawn) [Example 139, (2S,3S)-3-(2-methoxyphenyl)-2-methyl-3-(1-naphthyl)-2-({4-[3-(trifluoromethyl)cyclohexyl]piperidin-1-yl}carbonyl)propanenitrile], the melting point was 160 to 165 °C. Also, in the data set on ER/IL-6, the Emax is 98% and the IC50 worked out at 0.113 µM.
In turn, `COC[C@](C#N)(C(=O)OC)[C@H](c1ccccc1OC)c1cccc2ccccc12` [Example 150, Methyl (2S,3S)-2-cyano-2-(methoxymethyl)-3-(2-methoxyphenyl)-3-(1-naphthyl)propanoate] registered a melting point of 176 to 178 °C.
For the compound `COC(=O)[C@@](C#N)(Cc1cccnc1)[C@H](c1ccccc1OC)c1cccc2ccccc12` [Example 156, Methyl (2S,3S)-2-cyano-3-(2-methoxyphenyl)-3-(1-naphthyl)-2-(pyridin-3-ylmethyl)propanoate], the melting point is 193 °C (dec.). Besides, the Emax with ER/IL-6 came to 73%.
`COc1ccccc1C(c1ccnc2ccccc12)C(C)(C#N)C(=O)N1CCC(c2cccc(C(F)(F)F)c2)CC1` (stereo not shown) [Example 161, 3-(2-Methoxyphenyl)-2-methyl-3-quinolin-4-yl-2-({4-[3-(trifluoromethyl)phenyl]piperidin-1-yl}carbonyl)propanenitrile] showed a melting point of 163 to 165 °C. Besides, in the data set with ER/IL-6, the Emax came to 122% and the IC50 was determined as 0.798 µM.
In the same order, the values of `COc1ccccc1[C@H](c1cccc2ccccc12)[C@@](C)(C#N)C(=O)N1CC=C(c2c[nH]c3ccccc23)CC1` [Example 182, (2S)-3-[4-(1H-indol-3-yl)-3,6-dihydropyridin-1(2H)-yl]-2-[(s)-(2-methoxyphenyl)(1-naphthyl)methyl]-2-methyl-3-oxopropanenitrile] are 229 to 231 °C, 74% and 0.045 µM.
The compound `COc1ccccc1[C@H](c1cccc2ccccc12)[C@@](C)(C#N)C(=O)N1CCC2(CC1)C(=O)NCN2c1ccccc1` [Example 184, (2S,3S)-3-(2-methoxyphenyl)-2-methyl-3-(1-naphthyl)-2-[(4-oxo-1-phenyl-1,3,8-triazaspiro[4.5]dec-8-yl)carbonyl]propanenitrile] came in with a melting point of 176 to 178 °C. For the same compound, in the data set on ER/IL-6, the Emax is 88% and the IC50 was found to be 0.445 µM.
Compound `COc1ccccc1[C@H](c1cccc2ccccc12)[C@@](C)(C#N)C(=O)N1CCC(c2cccc(C(F)(F)F)c2)C(O)C1` (stereo partly drawn) [Example 185, (2S)-3-{3-hydroxy-4-[3-(trifluoromethyl)phenyl]piperidin-1-yl}-2-[(S)-(2-methoxyphenyl)(1-naphthyl)methyl]-2-methyl-3-oxopropanenitrile] yielded a melting point of 259 °C. For the same compound, in the data set on ER/IL-6, the Emax came to 116% and the IC50 was 0.288 µM.
On to `COc1ccccc1[C@H](c1cccc2ccccc12)[C@@](C)(C#N)C(=O)N1CCc2[nH]c3ccc(F)cc3c2C1` [Example 189, (2S)-3-(8-fluoro-1,3,4,5-tetrahydro-2H-pyrido[4,3-b]indol-2-yl)-2-[(S)-(2-methoxyphenyl)(1-naphthyl)methyl]-2-methyl-3-oxopropanenitrile], for which the melting point is 172 to 174 °C. Also, in the data set on ER/IL-6, the Emax is 103% and the IC50 was 0.348 µM.
